From PMC10094418, “Butein Inhibits Cell Growth by Blocking the IL-6/IL-6Rα Interaction in Human Ovarian Cancer and by Regulation of the IL-6/STAT3/FoxO3a Pathway” (International Journal of Molecular Sciences, 2023)

What was measured:
A2780 cells = experiment: Wound-healing assay, A2780; format: cell-based, human; settings: 24 h and 48 h, concentration-dependent, vs control, 0.1% DMSO and siltuximab
Experimental: A2780 and SKOV3 cells were cultured to 90% confluence in 6-well plates. After changing to a serum-free medium, the cell monolayer was scraped to artificially form homogeneous wound with uniform thickness. The drug treatment for each well was carried out in the following manner: siltuximab at 50 μM; butein at 10, 25, and 50 μM. The cells were imaged at 0, 24, and 48 h.

A2780 xenograft tumors = experiment: A2780 mouse xenograft; format: in vivo, BALB/c nude mice
Experimental: Adult BALB/c nude mice aged 5 weeks (n = 5, body weight 17−19 g) were purchased from Orient Bio (Seongnam, Republic of Korea) and reared in aseptic conditions with 55 ± 10% humidity and 25 ± 2 °C temperature under a 12 h/12 h light-dark cycle (Catholic University protocol). All animal experimental work was carried out in compliance with the legal obligations and federal guidelines and legal obligations for the care and maintenance of laboratory animals. All animal experiments were conducted with the approval of the Institutional Animal Care and Use Committee of the Catholic University of Korea (approval number: CUK-IACUC-2019-026-01). A2780 cell suspension (1 × 10^7 cells/200 μL in 1 × PBS) was injected subcutaneously into the dorsal scapula area of each mouse. The tumor developed 14 days after implantation to a size of approximately 150 mm^3. The mice were then divided randomly into vehicle control (5% DMSO), siltuximab (10 mg/kg), and butein (2 or 4 mg/kg) groups. All drugs were dissolved in 0.05% carboxymethylcellulose sodium salt (CMC) (Sigma-Aldrich, St. Louis, MO, USA) and injected intraperitoneally five times a week for three weeks. The tumor size was measured using calipers once every 2 days. The tumor volume was calculated using a simplified equation (length × width^2 × 0.5). Each tumor was harvested 22 days post-treatment.

[1] = system: IL-6 signaling in HEK-Blue™ IL-6 cells; experiment: IL-6 inhibitory bioassay with HEK-Blue IL-6 cells (SEAP activity); format: cell-based, human; settings: 10 ng/mL IL-6, 24 h
Experimental: HEK-Blue™ IL-6 cells were obtained from InvivoGen (San Diego, CA, USA). In a 96-well plate, 20 μL butein at various concentrations (0, 3.125, 6.25, 12.5, 25, and 50 μM) were added to the cell suspension (50,000 cells/200 μL). Following this, the recombinant human IL-6 (BioLegend, San Diego, CA, USA) was administered at 10 ng/mL. After 24 h, 20 μL of the IL-6-treated cell suspension was added to 180 μL of QUANTI-Blue™ Solution (JnvivoGen, San Diego, CA, USA) in a new 96-well plate. After 2 h of incubation at 37 °C, the spectrophotometric absorbance between 620 and 655 nm was recorded.

SKOV3 cells [2] = experiment: Annexin V apoptosis assay, SKOV3; format: cell-based, human; settings: dose-dependent, p < 0.005
Experimental: (§1) A2780 and SKOV3 cell lines were treated with control (siltuximab 10 μM) and butein (5, 10, and 25 μM). After 6 h, the cells were fixed with 70% ethanol for cell cycle analysis and stained with propidium iodide (PI). Cell death was analyzed using the FITC Annexin V Apoptosis Detection kit with 7-AAD (Cat.no. 640922, BioLegend, San Diego, CA, USA). Cells were sorted using a FACS Canto II (BD Biosciences, Franklin Lakes, NJ, USA) and cell cycle and apoptosis were analyzed using BD FACS Diva software version 6. 2. Analysis (BD Biosciences, Franklin Lakes, NJ, USA) was performed in triplicate.

SKOV3 cells [3] = experiment: Flow cytometric cell cycle analysis (PI), SKOV3; format: cell-based, human; settings: butein treatment; 58.3% under control conditions
Experimental: as §1

IL-6/IL-6Rα interaction = target: T1, IL-6/IL-6Rα interaction (Homo sapiens, UniProt P05231); experiment: ELISA of the IL-6/IL-6Rα interaction; format: binding; settings: at 20 μM
T1 construct: purchased BioLegend (IL-6); Acro biosystems (IL-6Ra) 570806 (IL-6); ILR-H5259 (IL-6Ra)
Experimental: An amount of 0.5 μg/mL rhIL-6 protein (Cat.no.570806, BioLegend) was coated onto 96-well ELISA plates at 4 °C overnight, and then the plates were washed with PBST (1 × PBS containing 0.05% Tween-20), followed by the addition of PBSA (1 × PBS containing 1% bovine serum albumin (BSA)) (Bovogen, East Keilor, Australia) for 1 h at room temperature. After blocking, the FDA-approved compounds (20 uM) (Cat.no. L-1300, Selleckchem, Houston, TX, USA) were incubated for 2 h at room temperature. After washing three times with PBST, 0.2 μg/mL recombinant IL-6Ra protein (Cat.no.ILR-H5259, Acro biosystems, Newark, DE, USA) was added to the plates, which were incubated for 1 h. After washing three times with PBST, HRP-conjugated goat anti-human IgG Ab (Cat.no. 10-035-098, Jackson Immno, Hatfield, West Grove, PA, USA) was added to the plates and incubated for 1 h. After washing three times with PBST, TMB solution (Cat.no.11684302001, Roche, Mannheim, Germany) was added to the plates and incubated for 15 min. Then, stop solution (2N HCl) was added to the plates. The absorbance was measured at 450 nm using the Epoch microplate spectrophotometer (BioTek instruments, Winooski, VT, USA).

IL-6 = target: T2, IL-6 (Homo sapiens, UniProt P05231); experiment: Surface plasmon resonance, immobilized IL-6; format: binding; settings: SPR, CM5 chip, steady-state KD
T2 construct: purchased PeproTech
Experimental: The surface plasmon resonance (SPR) assay was measured using the BIAcore T200 model (GE Healthcare, Chicago, IL, USA) with HBS-EP buffer (1×HBS-EP, GE Healthcare, Chicago, IL, USA) containing 5% dimethyl sulfoxide (DMSO; Sigma-Aldrich, St. Louis, MO, USA). The pH scouting for IL-6 (PeproTech, Rocky Hill, NJ, USA), IL-6Rα (PeproTech, Rocky Hill, NJ, USA), and gp130 (Sino Biological, Beijing, China, or ANRT, Daejeon, Korea) immobilization was performed in 10 mM acetate buffer at pH 4.5. IL-6, IL-6Rα, and gp130 were immobilized on a CM5 chip at 750, 1200, and 2000 response units (RU). Butein was injected into the IL-6, IL-6Rα and gp130-immobilized flow cell at concentrations of 10, 20, 30, 40, 50, 60, 70, 80, 90, and 100 μM with a 25 μL/min flow rate for 150 s and allowed to dissociate for 300 s. Steady-state KD was determined via the T-200 BIAevaluation software (GE Healthcare, Chicago, IL, USA).

T2 sequence (P05231 30-212): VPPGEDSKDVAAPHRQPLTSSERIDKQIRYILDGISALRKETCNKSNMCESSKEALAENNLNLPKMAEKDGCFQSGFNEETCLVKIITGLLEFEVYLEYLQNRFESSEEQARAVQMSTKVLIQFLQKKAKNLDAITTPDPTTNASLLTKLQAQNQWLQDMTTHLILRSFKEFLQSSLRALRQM
T1 sequence (P05231 30-212): as above

Total mouse weight (A2780 xenograft tumors; during the experimental period): no difference
Reduction of the interaction between IL-6 and IL-6Rα (IL-6/IL-6Rα interaction): 21.7%
Kd (IL-6): 91.4 µM
Compound: O=C(/C=C/c1ccc(O)c(O)c1)c1ccc(O)cc1O [butein]
Cell migration, A2780 (A2780 cells): reduced
Tumor growth (A2780 xenograft tumors; 2 or 4 mg/kg i.p. five times a week, vs vehicle and siltuximab-treated group): significant inhibition
Inhibition of SEAP signal of HEK-Blue IL-6 ([1]; 0-50 μM): maximum inhibition
LogIC50, HEK-Blue IL-6 SEAP activity [1]: 1.049±0.524 μM
IC50 ([1]; Homo sapiens, HEK-Blue IL-6): 12.9 ± 0.15 µM
Total apoptosis, SKOV3 (SKOV3 cells [2]): significantly increase
SKOV3 cells in G1-phase (SKOV3 cells [3]): 65.8%
